From PMC8956739, “A synthetic lipopeptide targeting top-priority multidrug-resistant Gram-negative pathogens” (Nature Communications, 2022)
Residues, ends and D or L forms follow the SMILES beside them.

Key:
[1] = test system: A. baumannii AB5075; assay: Transcriptomic analysis (RNA-Seq) of bacteria; assay type: cell-based, Acinetobacter baumannii; conditions: for logFC (Differential gene expression for all genes), Geneid ABUW_RS00005 / logFC (Differential gene expression for all genes), Geneid ABUW_RS00020 / logFC (Fold change), gene ABUW_RS00010 / logFC (Fold change), gene ABUW_RS00030 / logFC (Fold change), gene ABUW_RS00035 / logFC (Fold change), gene recF (ABUW_RS00015) / 4h_1h logFC (Differential gene expression for all genes), Geneid ABUW_RS00005 / 4h_1h logFC (Differential gene expression for all genes), Geneid ABUW_RS00010 / 4h_1h logFC (Differential gene expression for all genes), Geneid ABUW_RS00015 / 4h_1h logFC (Differential gene expression for all genes), Geneid ABUW_RS00020: RNA-Seq A. baumannii AB5075; for log2FC, gene ABUW_RS01945 (acyl-CoA thioesterase II) / log2FC, gene ABUW_RS02545 (acyl-CoA thioesterase) / log2FC, gene ABUW_RS05045 (acyl-CoA thioesterase) / log2FC, gene ABUW_RS17575 (acyl-CoA thioesterase): pathway Fatty Acid and Lipid Degradation; for 4h_1h logFC (Differential gene expression for all genes), Geneid ABUW_RS00005 / 4h_1h logFC (Differential gene expression for all genes), Geneid ABUW_RS00010 / 4h_1h logFC (Differential gene expression for all genes), Geneid ABUW_RS00015 / 4h_1h logFC (Differential gene expression for all genes), Geneid ABUW_RS00020: 4h vs 1h
Description: Mid-log phase A. baumannii AB5075 (~10^8 CFU/mL) in CaMHB was treated with colistin (2 and 8 μg/mL), F287, F319 or F365 (equimolar concentration to colistin) for 1 and 4 h. Total RNA was extracted using TRIzol Reagent (Invitrogen, USA) and RNeasy Mini Kit (Qiagen, Germany). Quality check of RNA samples was conducted with NanoDrop (Thermo Fisher Scientific, USA) and Agilent 2100 Bioanalyzer (Agilent Technologies, USA) for sequencing (150 bp paired-end) at Genewiz (Shanghai, China). Raw reads were aligned to A. baumannii AB5075 genome (GCF_000963815, https://www.ncbi.nlm.nih.gov/assembly/GCF_000963815.1/) using subread-aligner (subread 2.0.1) and summarized by featureCounts (subread 2.0.1). Principal component analysis (PCA) was conducted with mixOmics 6.14.1 in R. Differentially expressed genes were determined using limma 3.46.0 with a combination of fold change ≥ 2 and false discovery rate (FDR, by Benjamini–Hochberg algorithm) adjusted P-value ≤ 0.05 (n = 3). Enrichment analysis of gene differential expression in AB5075 was conducted using BioCyc (A. baumannii AB5075, version 25.5). UpSetR 1.4.0, ComplexHeatmap 2.6.2 and circlize 0.4.13 were used for data visualization. Raw data were deposited in Short Reads Archive (SRA) database under accession numbers SRR15235669-SRR15235725.

[2] = in vitro; assay type: cell-based, human; conditions: human, wild-type HK-2 cells (kidney proximal tubular), Cell viability, WT
Description: Fig. 6 Transcriptomic changes in human kidney proximal tubular HK-2 cells following treatments with polymyxin B (PMB), colistin (COL), F287, F319, and F365. a Numbers of differentially expressed genes. Distinctive intersections are color-coded. b Cell viability difference (two-tailed Student’s t-test, n = 4 biologically independent cells, Benjamini–Hochberg adjusted P-values) between wild-type HK-2 and KCNJ16 knockout (KO) cells following 24 h treatment with lipopeptides. n.s., not significant; ^*adjusted P < 0.05, ^**adjusted P < 0.01, ^***adjusted P < 0.001. Data are shown as mean ± s.d. and individual data points. c Extracted transcriptional regulatory network from Signor database with 1-step neighbor constraints (enlarged for detail). Source data are provided as a Source Data file.

## CCCCCCCC(=O)N[C@@H](CCN)C(=O)N[C@H](C(=O)N[C@@H](CCN)C(=O)N[C@H]1CCNC(=O)[C@H]([C@@H](C)O)NC(=O)[C@H](CCN)NC(=O)[C@H](CCN)NC(=O)[C@H](CC)NC(=O)[C@@H](CC(C)C)NC(=O)[C@H](CCN)NC1=O)[C@@H](C)O [Lipopeptide F319] (HELM PEPTIDE1{[CCCCCCCC(=O)[*:2]].[Dab].T.[Dab].[Dab].[Dab].[dL].[Abu].[Dab].[Dab].T}$PEPTIDE1,PEPTIDE1,5:R3-11:R2$$$V2.0)
[1]; H vs Cont, 1h
  logFC (Differential gene expression for all genes), Geneid ABUW_RS00005: -0.09763
  logFC (Differential gene expression for all genes), Geneid ABUW_RS00020: 0.4439
  logFC (Fold change), gene ABUW_RS00010: 0.5437
  logFC (Fold change), gene ABUW_RS00030: -0.5665
  logFC (Fold change), gene ABUW_RS00035: 1.083
  logFC (Fold change), gene recF (ABUW_RS00015): -0.2736
  log2FC, gene ABUW_RS01945 (acyl-CoA thioesterase II): 0.4348
  log2FC, gene ABUW_RS02545 (acyl-CoA thioesterase): 1.57
  log2FC, gene ABUW_RS05045 (acyl-CoA thioesterase): 0.3422
  log2FC, gene ABUW_RS17575 (acyl-CoA thioesterase): -0.5597
[1]; H vs Cont, 4h
  logFC (Differential gene expression for all genes), Geneid ABUW_RS00005: -0.2808
  logFC (Differential gene expression for all genes), Geneid ABUW_RS00020: -0.01751
  logFC (Fold change), gene ABUW_RS00010: 1.173
  logFC (Fold change), gene ABUW_RS00030: -1.885
  logFC (Fold change), gene ABUW_RS00035: 0.8498
  logFC (Fold change), gene recF (ABUW_RS00015): -1.612
  log2FC, gene ABUW_RS01945 (acyl-CoA thioesterase II): -0.7411
  log2FC, gene ABUW_RS02545 (acyl-CoA thioesterase): 1.194
  log2FC, gene ABUW_RS05045 (acyl-CoA thioesterase): 0.6506
  log2FC, gene ABUW_RS17575 (acyl-CoA thioesterase): -1.957
[1]; H
  4h_1h logFC (Differential gene expression for all genes), Geneid ABUW_RS00005: -0.8466
  4h_1h logFC (Differential gene expression for all genes), Geneid ABUW_RS00010: 0.6539
  4h_1h logFC (Differential gene expression for all genes), Geneid ABUW_RS00015: -1.958
  4h_1h logFC (Differential gene expression for all genes), Geneid ABUW_RS00020: 0.139
[1]; L vs Cont, 1h
  logFC (Differential gene expression for all genes), Geneid ABUW_RS00005: 0.2742
  logFC (Differential gene expression for all genes), Geneid ABUW_RS00020: 0.3388
  logFC (Fold change), gene ABUW_RS00010: 0.1491
  logFC (Fold change), gene ABUW_RS00030: 0.2512
  logFC (Fold change), gene ABUW_RS00035: -0.1567
  logFC (Fold change), gene recF (ABUW_RS00015): 0.1396
  log2FC, gene ABUW_RS01945 (acyl-CoA thioesterase II): 0.4255
  log2FC, gene ABUW_RS02545 (acyl-CoA thioesterase): 0.2059
  log2FC, gene ABUW_RS05045 (acyl-CoA thioesterase): -0.2352
  log2FC, gene ABUW_RS17575 (acyl-CoA thioesterase): 0.153
[1]; L vs Cont, 4h
  logFC (Differential gene expression for all genes), Geneid ABUW_RS00005: 0.0635
  logFC (Differential gene expression for all genes), Geneid ABUW_RS00020: -0.109
  logFC (Fold change), gene ABUW_RS00010: 0.1358
  logFC (Fold change), gene ABUW_RS00030: 0.06806
  logFC (Fold change), gene ABUW_RS00035: 0.1484
  logFC (Fold change), gene recF (ABUW_RS00015): -0.1014
  log2FC, gene ABUW_RS01945 (acyl-CoA thioesterase II): 0.08809
  log2FC, gene ABUW_RS02545 (acyl-CoA thioesterase): -0.3183
  log2FC, gene ABUW_RS05045 (acyl-CoA thioesterase): 0.2863
  log2FC, gene ABUW_RS17575 (acyl-CoA thioesterase): 0.3089
[1]; L
  4h_1h logFC (Differential gene expression for all genes), Geneid ABUW_RS00005: -0.004361
  4h_1h logFC (Differential gene expression for all genes), Geneid ABUW_RS00010: -0.867
  4h_1h logFC (Differential gene expression for all genes), Geneid ABUW_RS00015: -0.3076
  4h_1h logFC (Differential gene expression for all genes), Geneid ABUW_RS00020: -0.09503
[2]; Rep1
  viability at 24 h: 79%
[2]; Rep2
  viability at 24 h: 79.1%
[2]; Rep3
  viability at 24 h: 78.8%
[2]; Rep4
  viability at 24 h: 70.1%
